According to the supplement of paper PMC10331698:
± gives the standard deviation of the averaged measurements.

Legend:
Assay in all cases: level (log10 ratio to DMSO vehicle control); higher = higher biomarker level / cell amount than vehicle control
[1] = compound: OCCCCC(F)(F)C(F)(F)C(F)(F)C(F)(F)F [4:4 Fluorotelomer alcohol]; settings: in DMSO
Experimental: (§1)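 BioMAP Diversity Plus panel of 12 human primary cell co-culture systems (3C, 4H, LPS, SAg, BT, BF4T, BE3C, CASM3C, HDF3CGF, KF3CT, MyoF, Mphg). Compounds were added 1 h before stimulation and left for 24 h (MyoF 48 h; BT 72 h for soluble read-outs or 6 d for IgG). Biomarkers were read by ELISA, cytotoxicity by SRB, PBMC viability and proliferation by Alamar Blue. Each well value was divided by the mean of 8 DMSO control wells on the same plate and log10 transformed; duplicate blinded samples were tested at 4 concentrations.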

Tetrafluorosuccinic acid = compound: O=C(O)C(F)(F)C(F)(F)C(=O)O [Tetrafluorosuccinic acid]; settings: in DMSO
Experimental: as §1

Methotrexate = compound: CN(Cc1cnc2nc(N)nc(N)c2n1)c1ccc(C(=O)N[C@@H](CCC(=O)O)C(=O)O)cc1 [Methotrexate]; settings: in DMSO
Experimental: as §1

[2] = compound: OCCC(F)(F)C(F)(F)C(F)(F)C(F)(F)C(F)(F)C(F)(F)C(F)(F)C(F)(F)F [8:2 Fluorotelomer alcohol]; settings: 6700 nM; in DMSO
Experimental: as §1

Perfluorooctanoic acid = compound: O=C(O)C(F)(F)C(F)(F)C(F)(F)C(F)(F)C(F)(F)C(F)(F)C(F)(F)F [Perfluorooctanoic acid]; settings: in DMSO
Experimental: as §1

[3] = compound: FC(F)(F)COC(OCC(F)(F)F)OCC(F)(F)F [tris(Trifluoroethoxy)methane]; settings: in DMSO
Experimental: as §1

[4] = compound: OCC(F)(F)C(F)(F)C(F)(F)C(F)(F)C(F)(F)C(F)(F)C(F)(F)C(F)(F)CO [1H,1H,10H,10H-Perfluorodecane-1,10-diol]; settings: in DMSO
Experimental: as §1

Test System | level (log10) ([1]; 6700 nM) | level (log10) ([1]; 20000 nM) | level (log10) ([1]; 60000 nM) | level (log10) (Tetrafluorosuccinic acid; 6700 nM) | level (log10) (Tetrafluorosuccinic acid; 20000 nM) | level (log10) (Tetrafluorosuccinic acid; 60000 nM) | level (log10) (Methotrexate; 1500 nM) | level (log10) (Methotrexate; 4400 nM) | level (log10) (Methotrexate; 13000 nM) | level (log10) (Methotrexate; 40000 nM) | level (log10) [2] | level (log10) (Perfluorooctanoic acid; 6700 nM) | level (log10) (Perfluorooctanoic acid; 20000 nM) | level (log10) (Perfluorooctanoic acid; 60000 nM) | level (log10) ([3]; 6700 nM) | level (log10) ([3]; 20000 nM) | level (log10) ([3]; 60000 nM) | level (log10) ([4]; 6700 nM) | level (log10) ([4]; 20000 nM) | level (log10) ([4]; 60000 nM)
CASM3C:CCL2/MCP-1 | -0.004 ± 0.011 | -0.025 ± 0.0099 | 0.0285 ± 0.059 | -0.0005 ± 0.00071 | -0.0165 ± 0.005 | -0.0005 ± 0.025 | 0 ± 0.0028 | -0.0125 ± 0.005 | -0.002 ± 0.016 | -0.0195 ± 0.025 | -0.0125 ± 0.0021 | 0.007 ± 0.0085 | -0.01 ± 0.03 | 0.0215 ± 0.022 | 0.001 ± 0.0042 | -0.0005 ± 0.0064 | 0.0215 ± 0.035 | 0 ± 0.0028 | -0.027 ± 0.0028 | 0.02
BE3C:uPA | 0.0035 ± 0.011 | -0.0115 ± 0.00071 | 0.0015 ± 0.0021 | -0.007 ± 0.0057 | -0.016 ± 0.021 | -0.003 ± 0.013 | -0.013 ± 0.0028 | -0.0315 ± 0.033 | -0.0205 ± 0.052 | -0.0015 ± 0.036 | -0.0175 ± 0.00071 | -0.014 ± 0.013 | -0.0065 ± 0.0021 | 0.0185 ± 0.015 | 0.0075 ± 0.021 | -0.004 ± 0.0071 | -0.0175 ± 0.00071 | -0.008 ± 0.011 | -0.0315 ± 0.0021 | -0.078
lMphg:IL-1alpha | -0.0075 ± 0.005 | -0.0125 ± 0.005 | 0.0115 ± 0.015 | -0.016 ± 0.0057 | -0.015 ± 0.025 | -0.0035 ± 0.03 | -0.0335 ± 0.097 | -0.0545 ± 0.083 | -0.041 ± 0.057 | -0.028 ± 0.047 | -0.0045 ± 0.025 | -0.0105 ± 0.0021 | -0.0085 ± 0.026 | 0.0545 ± 0.026 | -0.031 ± 0.014 | -0.03 ± 0.0028 | -0.006 ± 0.03 | 0.002 ± 0.028 | 0.0055 ± 0.046 | -0.167
KF3CT:CCL2/MCP-1 | -0.0035 ± 0.057 | 0.004 ± 0.044 | 0.0225 ± 0.042 | -0.05 ± 0.0085 | -0.042 ± 0.021 | -0.0065 ± 0.07 | 0.052 ± 0.023 | -0.0125 ± 0.03 | -0.016 ± 0.024 | 0.0165 ± 0.0021 | -0.0165 ± 0.025 | 0.005 ± 0.018 | 0.0145 ± 0.029 | -0.0785 ± 0.011 | -0.021 ± 0.035 | -0.029 ± 0.0085 | 0.0315 ± 0.052 | -0.028 ± 0.021 | -0.024 ± 0.016 | -0.272
MyoF:SRB | -0.0025 ± 0.0035 | -0.0065 ± 0.0021 | 0.006 ± 0.017 | -0.0035 ± 0.0035 | -0.0135 ± 0.0021 | -0.01 ± 0.0014 | 0.012 ± 0.013 | 0.003 | 0.0125 ± 0.0064 | -0.0005 ± 0.005 | -0.0005 ± 0.015 | 0.0025 ± 0.0035 | 0.0065 ± 0.012 | -0.034 ± 0.0057 | -0.0045 ± 0.0035 | -0.001 ± 0.0014 | 0.005 ± 0.0042 | -0.012 | -0.019 ± 0.017 | -0.098
HDF3CGF:Proliferation 72hr | -0.003 ± 0.044 | 0.0205 ± 0.057 | 0.0355 ± 0.039 | -0.08 ± 0.076 | -0.135 ± 0.061 | -0.0935 ± 0.069 | -0.0885 ± 0.042 | -0.076 ± 0.13 | -0.0515 ± 0.036 | -0.083 ± 0.05 | -0.374 ± 0.26 | 0.06 ± 0.041 | 0.15 ± 0.005 | 0.0875 ± 0.0078 | -0.038 ± 0.081 | 0.001 ± 0.038 | -0.006 ± 0.038 | -0.0305 ± 0.046 | -0.112 ± 0.05 | -1.01
CASM3C:CD142/Tissue Factor | -0.0265 ± 0.015 | -0.0055 ± 0.0064 | 0.0285 ± 0.018 | -0.0165 ± 0.026 | -0.0345 ± 0.00071 | -0.025 ± 0.024 | 0.0505 ± 0.005 | 0.0195 ± 0.049 | 0.0265 ± 0.042 | 0.0305 ± 0.026 | -0.011 ± 0.014 | -0.0055 ± 0.039 | -0.008 ± 0.048 | -0.0345 ± 0.061 | 0.0185 ± 0.047 | -0.011 ± 0.0085 | -0.0275 ± 0.016 | -0.0275 ± 0.015 | -0.02 ± 0.0042 | -0.033
CASM3C:IL-6 | 0.0005 ± 0.016 | -0.0215 ± 0.025 | 0.0155 ± 0.077 | -0.0165 ± 0.015 | -0.0295 ± 0.0078 | -0.0015 ± 0.036 | -0.035 ± 0.041 | -0.087 ± 0.076 | -0.009 ± 0.023 | -0.039 ± 0.041 | -0.015 ± 0.014 | -0.0135 ± 0.019 | -0.022 ± 0.027 | -0.008 ± 0.031 | -0.019 ± 0.0028 | -0.0295 ± 0.011 | 0.005 ± 0.067 | -0.045 ± 0.027 | -0.071 ± 0.025 | -0.059
